In patent publication US20220048873A1, “PESTICIDALLY ACTIVE C[…] AMIDE DERIVATIVES” (SYNGENTA CROP PROTECTION AG, priority 2018, published 2022):

Legend:
Type in all cases: in vivo
[1] = tested on: Euschistus heros (Neotropical Brown Stink Bug); test: Euschistus heros feeding/contact activity on sprayed soybean leaves; settings: 120 h, application rate of 200 ppm, N2 nymphs, 5 days after infestation
Procedure: Soybean leaves on agar in 24-well microtiter plates were sprayed with aqueous test solutions prepared from 10,000 ppm DMSO stock solutions. After drying the leaves were infested with N2 nymphs. The samples were assessed for mortality 5 days after infestation.

[2] = tested on: Plutella xylostella (Diamond Back Moth); test: Plutella xylostella feeding/contact activity on treated artificial diet; settings: 192 h, application rate of 200 ppm, eggs, 8 days after infestation
Procedure: 24-well microtiter plates with artificial diet were treated with aqueous test solutions prepared from 10,000 ppm DMSO stock solutions by pipetting. After drying, Plutella eggs were pipetted through a plastic stencil onto a gel blotting paper and the plate was closed with it. The samples were assessed for mortality 8 days after infestation.

[3] = tested on: Spodoptera littoralis (Egyptian Cotton Leaf Worm); test: Spodoptera littoralis control on sprayed cotton leaf discs; settings: foliar, 72 h, application rate of 200 ppm, L1 larvae, 3 days after infestation, read-out: control (at least one of mortality, anti-feedant effect, growth inhibition)
Procedure: Cotton leaf discs were placed onto agar in 24-well microtiter plates and sprayed with aqueous test solutions prepared from 10′000 ppm DMSO stock solutions. After drying the leaf discs were infested with five L1 larvae. The samples were assessed for mortality, anti-feeding effect, and growth inhibition in comparison to untreated samples 3 days after infestation. Control of Spodoptera littoralis by a test sample is given when at least one of the categories mortality, anti-feedant effect, and growth inhibition is higher than the untreated sample.

COC(=O)OCN(CC1(C#N)CC1)C(=O)c1ccc(C2=NO[C@@](c3cc(Cl)c(F)c(Cl)c3)(C(F)(F)F)C2)cc1C [A1, [(1-cyanocyclopropyl)methyl-[4-[(5S)-5-(3,5-dichloro-4-fluoro-phenyl)-5-(trifluoromethyl)-4H-isoxazol-3-yl]-2-methyl-benzoyl]amino]methyl Methyl Carbonate]
≥ 80%: mortality at 200 ppm [1] | mortality at 200 ppm [2] | percent control (mortality, anti-feedant effect or growth inhibition) at 200 ppm [3]

CCOC(=O)OCN(CC1(C#N)CC1)C(=O)c1ccc(C2=NO[C@@](c3cc(Cl)c(F)c(Cl)c3)(C(F)(F)F)C2)cc1C [A2, [(1-cyanocyclopropyl)methyl-[4-[(5S)-5-(3,5-dichloro-4-fluoro-phenyl)-5-(trifluoromethyl)-4H-isoxazol-3-yl]-2-methyl-benzoyl]amino]methyl ethyl carbonate]
≥ 80%: mortality at 200 ppm [1] | mortality at 200 ppm [2] | percent control (mortality, anti-feedant effect or growth inhibition) at 200 ppm [3]
